Experimental data: US12292437B2, “Fluorescence histo-tomography (FHT) systems and methods” (Emit Imaging, Inc., priority 2015, dated 2025)

Conditions: rat, in vivo
From the text: To address some of these potential drawbacks, as described above, high resolution white light and multispectral (700 and 800 nm) fluorescence images may be captured off the block after every pass of the micro- or macrotome blade using an intraoperative fluorescence imaging system, thus vastly improving the amount of information captured throughout the specimen and decreasing total acquisition time. Generally, the process of fluorescent and high resolution white light data collection and subsequent co-registration and/or three-dimensional reconstruction, is referred to herein as cryofluorescence tomography or FHT.
To investigate the ability of FHT to study the physiology of the brain, XenoLight RediJect 2-Deoxy-D-glucose (2-DG, PerkinElmer, 750 nm excitation), a fluorescent glucose metabolism tracer, was injected into the intrathecal space of a rat. After 1.5 hours of distribution, the animal was sacrificed, the brain tissue excised, and the sample was cryopresevered in OCT. With each pass of the microtome blade (25 micron spacing), a high resolution white light and fluorescent image was acquired.
Further, to study the anatomy of ventricles and subarachnoid space, a fluorescent zwitterionic compound ZW800-1 (Curadel, LLC) was injected into the rat intrathecal space. This compound is not expected to cross into the brain parenchyma due to its chemical properties. […]

XenoLight RediJect 2-Deoxy-D-glucose [2-DG]
fluorescence signal in brain parenchyma: taken up in the brain parenchyma
